According to ChEMBL document CHEMBL4033735, “A potent and selective natriuretic peptide receptor-3 blocker 11-mer peptide created by hybridization of musclin and atrial natriuretic peptide” (Bioorg Med Chem Lett, 2017):
Active and inactive are the calls of the source. The rule behind the calls is not given here. Bridge positions count the residues as written; N and C are the ends. Square brackets hold non-standard residues; d marks the D form. Peptide text beside a SMILES is read from it. Cha = N[C@@H](CC1CCCCC1)C(=O)O

Legend:
[1] = biological target: T1, Atrial natriuretic peptide receptor 1 (Homo sapiens, UniProt P16066); experiment: Displacement of [125I]-human ANP from human NPR-1 incubated for 2 hrs by top count method
T1 sequence (P16066 whole entry): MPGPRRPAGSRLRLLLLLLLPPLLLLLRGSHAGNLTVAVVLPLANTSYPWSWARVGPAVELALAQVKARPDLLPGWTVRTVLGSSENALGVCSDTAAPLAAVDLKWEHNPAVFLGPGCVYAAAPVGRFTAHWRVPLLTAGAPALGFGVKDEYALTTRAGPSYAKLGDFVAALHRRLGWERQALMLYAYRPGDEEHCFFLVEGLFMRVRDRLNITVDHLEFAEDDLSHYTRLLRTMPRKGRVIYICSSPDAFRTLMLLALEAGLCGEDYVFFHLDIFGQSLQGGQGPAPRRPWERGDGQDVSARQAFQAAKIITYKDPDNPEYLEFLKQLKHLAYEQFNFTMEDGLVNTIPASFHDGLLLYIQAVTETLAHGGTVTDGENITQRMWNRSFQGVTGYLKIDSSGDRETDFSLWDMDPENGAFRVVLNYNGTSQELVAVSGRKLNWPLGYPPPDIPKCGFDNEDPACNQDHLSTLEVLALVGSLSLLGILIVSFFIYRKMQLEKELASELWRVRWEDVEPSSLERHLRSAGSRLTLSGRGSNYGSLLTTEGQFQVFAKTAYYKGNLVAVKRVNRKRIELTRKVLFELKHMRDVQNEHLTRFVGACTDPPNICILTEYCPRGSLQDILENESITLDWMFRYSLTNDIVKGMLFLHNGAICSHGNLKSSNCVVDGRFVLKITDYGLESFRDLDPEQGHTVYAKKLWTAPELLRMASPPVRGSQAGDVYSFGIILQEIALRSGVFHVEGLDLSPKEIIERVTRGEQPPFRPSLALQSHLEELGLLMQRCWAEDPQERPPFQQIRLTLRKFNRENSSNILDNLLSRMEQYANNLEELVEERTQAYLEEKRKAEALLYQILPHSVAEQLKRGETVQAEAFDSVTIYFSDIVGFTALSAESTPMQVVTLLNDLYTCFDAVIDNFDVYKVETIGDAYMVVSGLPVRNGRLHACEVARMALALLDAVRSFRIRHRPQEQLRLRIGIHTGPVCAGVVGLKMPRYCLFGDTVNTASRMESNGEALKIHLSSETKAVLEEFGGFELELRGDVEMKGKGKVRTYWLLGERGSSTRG

[2] = biological target: T2, Atrial natriuretic peptide receptor 3 (Homo sapiens, UniProt P17342); experiment: Displacement of [125I]-human ANP from His-tagged and Fc fragment containing human NPR-3 extracellular domain expressed in FreeStyle 293 cells incubated for 2 hrs by top count method; format: cell-based
T2 sequence (P17342 whole entry): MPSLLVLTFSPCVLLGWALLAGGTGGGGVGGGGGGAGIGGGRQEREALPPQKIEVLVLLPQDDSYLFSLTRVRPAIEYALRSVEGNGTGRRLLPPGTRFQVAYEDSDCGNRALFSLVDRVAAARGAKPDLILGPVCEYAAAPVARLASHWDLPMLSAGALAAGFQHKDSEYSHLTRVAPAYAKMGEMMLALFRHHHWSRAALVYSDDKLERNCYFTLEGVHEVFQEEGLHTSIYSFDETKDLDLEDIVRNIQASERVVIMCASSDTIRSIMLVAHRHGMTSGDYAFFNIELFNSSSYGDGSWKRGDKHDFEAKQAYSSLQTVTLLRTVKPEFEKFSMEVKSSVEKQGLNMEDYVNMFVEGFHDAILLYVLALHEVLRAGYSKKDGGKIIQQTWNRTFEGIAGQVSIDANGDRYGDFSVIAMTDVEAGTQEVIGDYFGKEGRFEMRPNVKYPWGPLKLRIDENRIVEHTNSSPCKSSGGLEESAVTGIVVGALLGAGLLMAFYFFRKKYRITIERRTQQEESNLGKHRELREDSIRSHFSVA

[3] = Stability in C57BL/6J mouse serum assessed as residual parent compound remaining at 1 mM after 2 hrs at 37 degC by HPLC method; format: ADME, cell-free; settings: read-out: Stability
[4] = Stability in C57BL/6J mouse serum assessed as residual parent compound remaining at 1 mM after 4 hrs at 37 degC by HPLC method; format: ADME, cell-free; settings: read-out: Stability
Serum = experiment: Stability in C57BL/6J mouse serum at 1 mM up to 4 hrs at 37 degC by HPLC method; format: ADME, cell-free; settings: 1000 µM
[5] = biological target: T3, Atrial natriuretic peptide receptor 3 (Mus musculus) (UniProt P70180); experiment: Activity at NPR-3 in C57BL/6J mouse primary adipocytes assessed as increase in mANP-stimulated cGMP production at 1 uM pre-incubated for 30 mins before mANP stimulation for 15 mins by enzyme immunoassay; format: cell-based
T3 sequence (whole entry): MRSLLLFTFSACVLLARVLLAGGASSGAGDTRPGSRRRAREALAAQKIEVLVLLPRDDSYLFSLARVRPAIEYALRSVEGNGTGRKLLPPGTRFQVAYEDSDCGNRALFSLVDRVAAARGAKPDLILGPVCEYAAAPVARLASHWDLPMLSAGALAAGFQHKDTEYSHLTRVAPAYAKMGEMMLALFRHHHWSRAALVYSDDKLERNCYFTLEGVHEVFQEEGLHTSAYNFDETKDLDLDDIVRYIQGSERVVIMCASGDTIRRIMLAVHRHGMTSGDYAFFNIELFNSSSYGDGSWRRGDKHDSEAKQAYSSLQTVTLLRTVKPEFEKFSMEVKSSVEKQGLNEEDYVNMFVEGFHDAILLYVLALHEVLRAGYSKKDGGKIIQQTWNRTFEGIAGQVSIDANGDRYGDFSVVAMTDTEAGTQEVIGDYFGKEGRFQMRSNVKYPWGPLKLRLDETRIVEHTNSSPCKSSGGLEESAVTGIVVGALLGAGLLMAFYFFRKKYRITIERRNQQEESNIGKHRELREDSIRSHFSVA

[6] = Drug level in mouse blood at 300 nmol/kg/day dosed as continuous administration for 3 days; format: ADME, organism-based; settings: whole blood, read-out: Drug uptake
[7] = Drug level in mouse blood at 1000 nmol/kg/day dosed as continuous administration for 3 days; format: ADME, organism-based; settings: whole blood, read-out: Drug uptake
Mus musculus [8] = experiment: Increase in cGMP production C57BL/6J mouse blood at 1 umol/kg/day, sc administered via infusion from implanted osmotic pumps for 7 days by enzyme immunoassay; format: functional, organism-based
Mus musculus [9] = experiment: Increase in cGMP production C57BL/6J mouse blood at 1 umol/kg/day, sc administered via infusion from implanted osmotic pumps for 7 days and co-dosed with 1 umol/kg/day mANP by enzyme immunoassay; format: functional, organism-based
[10] = Stability in C57BL/6J mouse serum assessed as residual parent compound remaining at 1 mM after 30 mins at 37 degC by HPLC method; format: ADME, cell-free; settings: read-out: Stability
[11] = Stability in C57BL/6J mouse serum assessed as residual parent compound remaining at 1 mM after 60 mins at 37 degC by HPLC method; format: ADME, cell-free; settings: read-out: Stability
[12] = Stability in 10% C57BL/6J mouse serum/phosphate-buffered saline assessed as residual parent compound remaining at 1 mM after 30 mins at 37 degC by HPLC method; format: ADME, cell-free; settings: 10% mouse serum in phosphate-buffered saline, read-out: Stability
[13] = Stability in 10% C57BL/6J mouse serum/phosphate-buffered saline assessed as residual parent compound remaining at 1 mM after 60 mins at 37 degC by HPLC method; format: ADME, cell-free; settings: 10% mouse serum in phosphate-buffered saline, read-out: Stability

SMILES	IC50 [1] [nM]	IC50 [2] [nM]	remaining at 2 h, 1000 µM [3] [%]	remaining at 4 h, 1000 µM [4] [%]	Stability (Serum)	Activity [5]	concentration at 72 h [6] [nM]	concentration at 72 h [7] [nM]	Activity (Mus musculus [8])	Activity (Mus musculus [9])	remaining at 0.5 h, 1000 µM [10] [%]	remaining at 1 h, 1000 µM [11] [%]	remaining at 0.5 h, 1000 µM [12] [%]	remaining at 1 h, 1000 µM [13] [%]
CC[C@H](C)[C@H](NC(=O)[C@H](CCCNC(=N)N)NC(=O)[C@H](CC(=O)O)NC(=O)[C@@H](NC(=O)[C@H](CCCNC(=N)N)NC(=O)CNC(=O)CNC(=O)[C@H](CC1CCCCC1)NC(=O)CNC(=O)[C@H](CO)NC(=O)[C@@H](N)Cc1ccccc1)[C@@H](C)CC)C(=O)NCC(N)=O	> 1000	1.2											1.4	0
CC[C@H](C)[C@H](NC(=O)[C@H](CCCNC(=N)N)NC(=O)[C@H](CC(=O)O)NC(=O)[C@@H](NC(=O)[C@H](CCCNC(=N)N)NC(=O)CNC(=O)CNC(=O)[C@H](CC1CCCCC1)NC(=O)CNC(=O)[C@H](CO)NC(=O)[C@H](Cc1ccccc1)NC(=O)[C@H](CO)NC(=O)[C@@H](N)CCCNC(=N)N)[C@@H](C)CC)C(=O)NCC(N)=O (H-RSFSG[Cha]GGRIDRIG-NH2)	> 1000	0.3											5	0
CC[C@H](C)[C@@H]1NC(=O)[C@H](CCCNC(=N)N)NC(=O)[C@H](CC(=O)O)NC(=O)[C@H]([C@@H](C)CC)NC(=O)[C@H](CCCNC(=N)N)NC(=O)CNC(=O)CNC(=O)[C@H](Cc2ccccc2)NC(=O)[C@@H](NC(=O)[C@H](CO)NC(=O)[C@H](CO)NC(=O)[C@@H](N)CCCNC(=N)N)CSSC[C@@H](C(=O)O)NC(=O)[C@H](C)NC(=O)CNC1=O (H-RSSCFGGRIDRIGAC-OH; disulfide 4-15)	> 1000	0.51											4	2

The next lines start with results.

IC50 [1] [nM]	IC50 [2] [nM]	remaining at 2 h, 1000 µM [3] [%]	remaining at 4 h, 1000 µM [4] [%]	Stability (Serum)	Activity [5]	concentration at 72 h [6] [nM]	concentration at 72 h [7] [nM]	Activity (Mus musculus [8])	Activity (Mus musculus [9])	remaining at 0.5 h, 1000 µM [10] [%]	remaining at 1 h, 1000 µM [11] [%]	SMILES	remaining at 0.5 h, 1000 µM [12] [%]	remaining at 1 h, 1000 µM [13] [%]
> 1000	0.099	100	102	Stable								CC[C@H](C)[C@H](NC(=O)[C@H](CCCNC(=N)NC)NC(=O)[C@H](CC(=O)O)NC(=O)[C@@H](NC(=O)[C@@H]1C[C@@H](O)CN1C(=O)CNC(=O)[C@@H](C)NC(=O)[C@H](CC1CCCCC1)NC(=O)[C@H]1C[C@H](O)CN1C(=O)[C@H](CO)NC(=O)[C@@H](Cc1ccccc1)NC(C)=O)[C@@H](C)CC)C(=O)NC		
> 1000	0.079	107	92		Active	10.1	40.5	Active	Active			CC[C@H](C)[C@H](NC(=O)[C@H](CCCNC(=N)NC)NC(=O)[C@H](CC(=O)O)NC(=O)[C@@H](NC(=O)[C@@H]1C[C@@H](O)CN1C(=O)CNC(=O)[C@@H](CO)NC(=O)[C@H](CC1CCCCC1)NC(=O)[C@H]1C[C@H](O)CN1C(=O)[C@H](CO)NC(=O)[C@@H](Cc1ccccc1)NC(=O)CO)[C@@H](C)CC)C(=O)NC		
> 1000	0.087									86	74	CC[C@H](C)[C@H](NC(=O)[C@H](CCCNC(=N)N)NC(=O)[C@H](CC(=O)O)NC(=O)[C@@H](NC(=O)[C@@H]1CCCN1C(=O)CNC(=O)[C@@H](C)NC(=O)[C@H](CC1CCCCC1)NC(=O)[C@H]1CCCN1C(=O)[C@H](CO)NC(=O)[C@@H](Cc1ccccc1)NC(C)=O)[C@@H](C)CC)C(=O)NC		
> 1000	0.054									81	68	CC[C@H](C)[C@H](NC(=O)[C@H](CCCNC(=N)N)NC(=O)[C@H](CC(=O)O)NC(=O)[C@@H](NC(=O)[C@@H]1CCCN1C(=O)CNC(=O)[C@@H](C)NC(=O)[C@H](CC1CCCCC1)NC(=O)[C@H]1CCCN1C(=O)[C@H](CO)NC(=O)[C@@H](Cc1ccccc1)NC(C)=O)[C@@H](C)CC)C(N)=O		
> 1000	0.14	77	62				13.7			91	84	CC[C@H](C)[C@H](NC(=O)[C@H](CCCNC(=N)NC)NC(=O)[C@H](CC(=O)O)NC(=O)[C@@H](NC(=O)[C@@H]1CCCN1C(=O)CNC(=O)[C@@H](C)NC(=O)[C@H](CC1CCCCC1)NC(=O)[C@H]1CCCN1C(=O)[C@H](CO)NC(=O)[C@@H](Cc1ccccc1)NC(C)=O)[C@@H](C)CC)C(=O)NC		
